Experimental findings from patent publication US5698521A, “Native calcitonin mimetics” (ZymoGenetics, Inc., priority 1995, dated 1997) are described below.

For series [1], the target named is T1, human calcitonin receptor (Homo sapiens, UniProt P30988).
T1 construct: expressed in transfected cells; host or cells: BHK 570 clone KZ10-20-48 (CRE-luciferase), clone Hollex-1
T1 sequence (P30988 25-474): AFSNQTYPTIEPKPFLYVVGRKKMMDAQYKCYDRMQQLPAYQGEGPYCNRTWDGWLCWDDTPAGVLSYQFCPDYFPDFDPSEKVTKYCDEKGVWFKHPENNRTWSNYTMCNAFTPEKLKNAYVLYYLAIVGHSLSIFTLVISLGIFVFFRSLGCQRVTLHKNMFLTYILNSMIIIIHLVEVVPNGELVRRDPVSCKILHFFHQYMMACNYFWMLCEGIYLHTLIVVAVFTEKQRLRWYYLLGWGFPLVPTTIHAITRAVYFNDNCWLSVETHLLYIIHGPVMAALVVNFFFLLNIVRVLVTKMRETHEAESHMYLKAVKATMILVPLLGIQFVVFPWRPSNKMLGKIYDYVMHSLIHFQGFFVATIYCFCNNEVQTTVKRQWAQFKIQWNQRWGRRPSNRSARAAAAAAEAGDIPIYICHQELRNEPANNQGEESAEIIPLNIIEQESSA
The experiment in a line: CRE-luciferase induction in Hollex-1 cells (BHK 570 expressing human calcitonin receptor and CRE-luciferase reporter). It is filed as cell-based. Conditions: BHK 570 cells expressing human calcitonin receptor and CRE-luciferase reporter (Hollex-1). A general note: In a reporter assay the amount or activity of a reporter protein is the signal.

Series [2] is described as follows: Solubility of isolated powders in organic solvents. It is filed as physicochemical.
Series [3] deals with osteoclasts in mouse calvariae. Description: Calvaria histology (TRAP-stained osteoclast number and size). It is filed as cell-based. An excerpt:
To confirm the findings in the calvarial bone resorption assay employing calcium release from culture mouse calvariae, selected bones were fixed in 10% neutral buffered formalin and demineralized in 5% formic acid with 5% formalin. The bones were dehydrated through an ascending series of ethanol concentrations, infiltrated in glycol methacrylate, and embedded using a JB-4 embedding kit (PolySciences, Warrington, Pa.) (Liu and Kalu, J. Bone Miner. Res., 5:973-82, 1990). Cross sections of calvariae cut at 5 μm were obtained and stained for tartrate-resistant acid phosphatase (TRAP) activity and counterstained with methyl green and thionin for cell morphology (Liu and Kalu, J. Bone. Miner. Res. 1990, supra). Osteoclasts were identified by TRAP stain, multinucleation, large cell size, and irregular cell shape. The number of osteoclasts were counted from endocranial and ectocranial bone surfaces and expressed as number/mm perimeter. The size of all the osteoclasts counted was also measured using a Bone Morphometry program (Lui and Kalu, supra.; Bain et al., J. Done Miner. Res. 8:435-42, 1993). […] This PTH-induced increase was suppressed by treatment with human calcitonin.
Calcitonin mimetic compounds were evaluated in a similar fashion for their ability to suppress PTH-induced increases in osteoclast number and size. Cell toxicity (or death) was also evaluated morphologically. […]

The subject of series [4] is PTH-Induced Bone Resorption in Mouse Calvariae. Description: Calvarial assay: PTH-induced bone resorption (calcium release). The format is cell-based. Conditions: 1 nM PTH 1-34, 72 hours, read-out: Inhibition of Ca++ Release EC50. How it is done:
Calvaria from 4-day old neonatal CD-1 mice (pregnant mice received from Charles River Laboratories, Wilmington, Mass.) were trimmed with fine-tipped scissors to leave the parietal regions, including the sagittal suture. These trimmed bones were placed singly per well into 6-well cell culture cluster plates (Costar, Pleasanton, Calif.) with 1 ml/well of growth medium (DMEM, BioWhittaker, Walkersville, Md.) with 4.5 g/L glucose, 0.29 mg/ml L-glutamine, 1 mM sodium pyruvate, 15% heat-inactivated horse serum, and antibiotics (penicillin-G 50 μg/ml, streptomycin 50 μg/ml, and neomycin 100 μg/ml), and rocked gently (RedRocker™, model PR50-115V, Hoefer, San Francisco, Calif.) at 37° C. in a 5% CO2 humidified incubator for 24 hours preincubation.
Following incubation, medium was removed and replaced with 1.5 ml/well of growth medium containing 1 nM parathyroid hormone (PTH) 1-34 (Sigma) to stimulate bone resorption. For evaluation of the ability of calcitonin mimetics to inhibit PTH induced bone resorption, mimetic compounds in DMSO were added to the growth medium at concentrations ranging from 1-240 μg/ml (final assay concentration of DMSO less than or equal to 1%). In each experiment human calcitonin (0.02-20 nM, 0.2-2 nM preferred) was added to PTH treated bones as a positive control. […]

Series [5] concerns human calcitonin receptor. The experiment in a line: CRE-luciferase induction in Hollex-1 cells (BHK 570 expressing human calcitonin receptor and CRE-luciferase reporter). It is filed as cell-based. Conditions: Hollex-1 clone; read-out: forskolin EC50, CRE-luciferase induction.
The test system of series [6] is KZ10-20-48/Zem 228 cells (calcitonin receptor negative). Description: CRE-luciferase induction in calcitonin receptor negative line KZ10-20-48/Zem 228 (specificity control). The format is cell-based, baby hamster.
Series [7] deals with KZ10-20-48 cells (CRE-luciferase reporter). Description: CRE-luciferase induction in parent reporter line BHK/KZ10-20-48. As to conditions: clone KZ10-20-48, 25 mM forskolin, 4 hours; range 15-25 fold. The format is cell-based, baby hamster. How it is done: Stable transfectants were selected by growth in Dulbecco's modified Eagle's medium (DMEM) supplemented with 10% heat inactivated fetal bovine serum (HI-FBS), 2 mM L-glutamine and 1 mM sodium pyruvate containing 250 nM methotrexate (MTX) for 10-14 days. Clones were isolated, grown to confluence in opaque white microtiter plates (Dynatech, Chantilly, Va.), then treated with […], which elevates cellular cAMP through direct activation of adenylate cyclase (Berkowitz and Gilman, Proc. Nat. Acad. Sci. USA 87:5258-62, 1990) for 4 hours at 37° C., 5% CO2 . Following incubation, cells were lysed and assayed for luciferase induction in a Labsystems Luminoskan microtiter luminometer (Labsystems Inc., Morton Grove, Ill.) using a Promega luciferase kit (El500, Promega Corp., Madison, Wis.), as described below.

The target of series [8] is T2, human glucagon receptor (Homo sapiens, UniProt P47871). Conditions: KZ10-20-48/pLJ6-4-25 clone.
For series [9], the target named is T2, human glucagon receptor. Description: cell-based.
Series [10] addresses hamster calcitonin receptor (Mesocricetus auratus, UniProt A0A3Q0D7K7). Description: CRE-luciferase induction in Boris/KZ10-3 cells (calcitonin receptor positive).
The mark [11] stands for this setting: in acetonitrile, ethyl acetate, and chloroform.
Where [12] appears, read: in methanol, ethanol, n-butanol and dimethyl sulfoxide.

Where a SMILES comes first, the peptide text is derived from it. [ ]: non-standard residue; d: D form. ξ: configuration not given here. ξPro(4ξ-Me) = CC1CNC(C(=O)O)C1; ξIva = CCC(C)(N)C(=O)O; Aib = CC(C)(N)C(=O)O

In general, EC50 refers to the concentration needed to bring the measured effect to its halfway point.

Chain of hamster calcitonin receptor (A0A3Q0D7K7 entry or part of it): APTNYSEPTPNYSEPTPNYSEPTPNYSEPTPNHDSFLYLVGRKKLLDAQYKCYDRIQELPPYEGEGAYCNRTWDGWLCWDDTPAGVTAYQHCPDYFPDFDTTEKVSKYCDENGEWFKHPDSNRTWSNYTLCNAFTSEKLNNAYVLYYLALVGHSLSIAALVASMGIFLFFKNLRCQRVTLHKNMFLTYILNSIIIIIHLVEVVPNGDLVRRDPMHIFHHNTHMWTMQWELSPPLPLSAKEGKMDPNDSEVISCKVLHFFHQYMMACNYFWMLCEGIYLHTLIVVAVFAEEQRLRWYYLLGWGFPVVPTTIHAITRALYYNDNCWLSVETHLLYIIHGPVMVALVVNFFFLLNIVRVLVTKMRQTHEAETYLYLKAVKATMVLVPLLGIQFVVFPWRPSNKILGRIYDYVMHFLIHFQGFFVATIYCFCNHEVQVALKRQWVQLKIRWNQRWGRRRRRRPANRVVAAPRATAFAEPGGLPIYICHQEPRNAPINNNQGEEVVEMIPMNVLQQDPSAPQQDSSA
T2 sequence (P47871 26-477): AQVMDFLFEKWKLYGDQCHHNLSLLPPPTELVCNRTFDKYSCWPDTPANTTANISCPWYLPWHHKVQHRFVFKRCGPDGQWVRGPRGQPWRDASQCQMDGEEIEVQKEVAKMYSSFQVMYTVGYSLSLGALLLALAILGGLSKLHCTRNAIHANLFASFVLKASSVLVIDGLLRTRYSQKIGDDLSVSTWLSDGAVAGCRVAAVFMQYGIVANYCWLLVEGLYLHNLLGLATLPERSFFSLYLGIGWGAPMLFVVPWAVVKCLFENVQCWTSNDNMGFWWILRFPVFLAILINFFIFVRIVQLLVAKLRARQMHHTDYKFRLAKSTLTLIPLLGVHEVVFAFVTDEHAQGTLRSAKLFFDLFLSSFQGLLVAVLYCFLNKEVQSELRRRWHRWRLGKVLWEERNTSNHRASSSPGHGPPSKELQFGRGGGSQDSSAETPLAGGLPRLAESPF

For the compound `CC[C@H](C)[C@H](NC(=O)C(C)(C)NC(=O)[C@H](CCC(N)=O)NC(=O)C(C)(CC)NC(=O)[C@H](Cc1c[nH]c2ccccc12)NC(C)=O)C(=O)N[C@H](C(=O)NC(C)(C)C(=O)N[C@@H](CC(C)C)C(=O)NC(C)(C)C(=O)N1CCC[C@H]1C(=O)N[C@@H](CCC(N)=O)C(=O)NC(C)(C)C(=O)N1CCC[C@H]1C(=O)NC(C)(C)C(=O)N1CC(C)CC1C(=O)N[C@@H](Cc1ccccc1)C(=O)O)[C@@H](C)O` (stereo partly drawn) [ZG 2807 B, Acetyl-Trp-Xaal-Gln-Aib-Ile-Thr-Aib-Leu-Aib-Pro-Gln-Aib-Pro-Aib-Xaa2-Phe] (Ac-W[ξIva]Q[Aib]IT[Aib]L[Aib]PQ[Aib]P[Aib][ξPro(4ξ-Me)]F-OH), the EC50 in series [1] worked out at 525 nM. The solubility entry in series [2] (setting [11]) is given as “slightly soluble”; in series [2] (in hexane) it was “insoluble”; in series [2] (setting [12]) it was “readily soluble”.

In the case of “parathyroid hormone (PTH) 1-34 (SVSEIQLMHNLGKHLNSMERVEWLRKKLQDVHNF; Parathyroid hormone; UniProt P01270 32-65, looked up, fragment) [PTH 1-34, stimulus of bone resorption in the calvarial assay, reference compound]”, the “number and size of osteoclasts (histomorphometry)” value in series [3] (cultured mouse calvariae, calcitonin tested against the PTH-induced increase) is “increases in the number and size of osteoclasts”.

Regarding `CC[C@H](C)[C@H](NC(=O)C(C)(C)NC(=O)[C@H](CCC(N)=O)NC(=O)C(C)(CC)NC(=O)[C@H](Cc1c[nH]c2ccccc12)NC(C)=O)C(=O)N[C@H](C(=O)NC(C)(C)C(=O)N[C@@H](CC(C)C)C(=O)NC(C)(C)C(=O)N1CCC[C@H]1C(=O)N[C@@H](CCC(N)=O)C(=O)NC(C)(C)C(=O)N1CCC[C@H]1C(=O)NC(C)(C)C(=O)N1CC(C)CC1C(=O)N[C@@H](Cc1ccccc1)C(=O)NCC(=O)O)[C@@H](C)O` (stereo partly drawn) [ZG 2807 A, Acetyl-Trp-Xaal-Gln-2-aminoisobutyric acid (Aib)-Ile-Thr-Aib-Leu-Aib-Pro-Gln-Aib-Pro-Aib-Xaa2-Phe-Gly] (Ac-W[ξIva]Q[Aib]IT[Aib]L[Aib]PQ[Aib]P[Aib][ξPro(4ξ-Me)]FG-OH), the figures for the concentration for a half-maximal effect (EC50) in series [1] and in series [4] were 506 nM and 33200 nM, respectively. The Histology result in [3] (PTH-treated mouse calvariae, the cell wraps over two lines: 'Inhibition of osteoclast size') is “Inhibition of osteoclast”. Also, the solubility result in series [2] (setting [11]) was “slightly soluble”; in series [2] (in hexane), “insoluble”; in series [2] (setting [12]), “readily soluble”.

`C=C[C@@]1(C)CC(=O)[C@]2(O)[C@@]3(C)[C@@H](O)CCC(C)(C)[C@@H]3[C@H](O)[C@H](OC(C)=O)[C@@]2(C)O1` [forskolin]: the half-maximal effective concentration (EC50) came out at 1200 nM in series [5]; 600 nM in [6] (Mesocricetus auratus, range 0.5-1.5 μM); 2100 nM at human glucagon receptor [9]; 900 nM in series [10]. Besides, the “induction of CRE-luciferase” value in series [6] (range 20-35 fold) is reported as 30 fold. For the same compound, the “induction of CRE-luciferase vs basal” value in series [7] is on record as 20 fold. For the same compound, the induction of luciferase amounted to 35 fold at human glucagon receptor [8] and 25 fold in series [10] (Boris/KZ10-3 clone).
